Assay results reported in patent publication US12263155B2, “Combinations of monoamine oxidase inhibitors and serotonin receptor agonists and their therapeutic use” (Remedi, Inc., priority 2022, dated 2025).
Several values for one entry are separate records, joined by “and”; a condition that tells them apart may be missing. Equal values may be shown once. Entries after “also recorded” stand apart in the source; their conditions may differ.

Target: T1, brain MAO-A (Rattus norvegicus, UniProt P21396)
T1 construct: prepared from brain homogenates of male Sprague-Dawley rats, served as the source of MAO-A enzymatic activity; from tissue
T1 sequence (P21396 1-526): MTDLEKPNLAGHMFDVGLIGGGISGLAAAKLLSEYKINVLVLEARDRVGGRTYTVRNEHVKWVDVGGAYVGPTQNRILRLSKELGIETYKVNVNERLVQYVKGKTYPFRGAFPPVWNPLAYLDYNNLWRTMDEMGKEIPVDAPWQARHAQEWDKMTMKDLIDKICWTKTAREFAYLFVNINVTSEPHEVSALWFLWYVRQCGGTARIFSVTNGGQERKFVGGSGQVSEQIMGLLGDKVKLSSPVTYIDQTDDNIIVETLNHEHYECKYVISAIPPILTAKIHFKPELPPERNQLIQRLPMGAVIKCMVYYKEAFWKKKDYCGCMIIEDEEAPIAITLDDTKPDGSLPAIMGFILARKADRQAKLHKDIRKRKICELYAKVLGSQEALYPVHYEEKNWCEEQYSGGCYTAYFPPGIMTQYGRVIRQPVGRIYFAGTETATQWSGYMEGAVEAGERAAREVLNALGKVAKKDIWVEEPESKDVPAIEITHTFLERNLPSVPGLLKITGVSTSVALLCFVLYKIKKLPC
Experiment: Ex vivo brain MAO-A activity after oral CX157 in rats
Parameters: mean brain MAO-A activity (Avg.) / brain MAO-A activity, single experimental day: unit not given here
Details: for mean brain MAO-A activity (Avg.): average of 4 days
Procedure: Methods: Sprague-Dawley male rats (average weight of 190 g) were segregated into three groups for testing of the effects of CX157 on brain MAO-A enzyme activity. The three groups consisted of animals who received either 1, 5, and 10 mg/kg of CX157. Each group consisted of twenty-four subjects. Test animals were administered the doses of CX157 orally, by the gavage method in accordance with White & Scates, Drug Dev Res. 1992; 25:191-199.
In each drug group, four animals were sacrificed at each time period (0, 2, 4, 8, 18 and 24 hours) on four different days following drug administration. Brains were removed from the animal, bisected, frozen immediately on dry ice and placed in a −80° C. freezer. Trunk blood was collected in tubes containing sodium heparin and centrifuged at 5000 rpm for 10 minutes at 4° C. to extract the plasma. The frozen brain samples were thawed, weighed, and homogenized (3:1 tissue weight/buffer volume) in 0.25 M sucrose, containing 50 mM KHPO4(pH 7.4), with a Teflon glass homogenizer. Deprenyl HCl (at a final concentration of 100 nM) was added to each sample of homogenate to block MAO-B enzyme activity. A volume of 400 μl of homogenate was pipetted into each assay tube. A 50 μl volume of 500 μM [^14C]-5HT (specific activity of 1.6 Curies/mmol) was added to each assay tube to give a final concentration of […]. Blank assay tubes (included to correct for nonspecific deamination of [^14C]-5HT) also contained 50 μl of RO-41-1049, while total activity assay tubes (specific and nonspecific deaminating activity) contained 50 μl of buffer. The final concentration of RO-41-1049 in the blank activity tubes was 100 μM. This yielded a total assay volume of 500 μl. All assays were incubated for 7.5 minutes at 37° C. The reaction was terminated by the addition of 500 μl of 2 M citric acid. The deaminated [^14C]-5HT metabolite was extracted into a liquid scintillation fluor mixture of xylene/ethyl acetate and 0.4% PPO and quantified using a liquid scintillation spectrometer.
The specific activity of MAO-A in each of the samples was determined by subtraction of the values obtained in the nonspecific tubes from those in the total activity tubes. Methylcellulose was prepared by weighing 17.5 grams in a weigh boat on a Mettler balance and poured into a 4 liter flask. Two liters of distilled water was added to the 4 liter flask. The mixture was placed on a stir plate/hot plate and stirred overnight (for 24 hours) until completely dissolved. After the methylcellulose dissolved, distilled water was added until the volume in the flask reached 3.5 liters. The CX157 was prepared in a 0.5% methylcellulose/Tween 80 mixture to obtain the following dosages 1, 5, and 10 mg/kg. Initially, 52 mg of CX157 was placed in a 7 ml amber vial. A volume of 52 μl of Tween 80 was added to the amber vial containing CX157. A volume of 5.2 ml of methylcellulose was added to this vial to yield a solution of 10 mg/ml; this solution was used to deliver the 10 mg/kg dose. For the 5 mg/kg dose, a 5 mg/ml solution was prepared as follows; a volume of 1 ml of 10 mg/ml stock was mixed with 1 ml of methylcellulose and sonicated until mixed thoroughly. For the 1 mg/kg dose, a 1:10 dilution of the stock dose of 10 mg/ml was performed by pipetting 0.5 ml of 10 mg/ml stock into an amber vial with an addition of 4.5 ml of methylcellulose followed by sonication to disperse the drug into solution. All drugs were then administered on a 1 ml/kg basis with an average volume of 200 μl.

Compound: O=S1(=O)c2ccc(F)cc2Oc2cc(OCC(F)(F)F)ccc21 [CX157, 3-fluoro-7(2,2,2-trifluorethoxy)phenoxathiine-10,10-dioxide]
- brain MAO-A activity, % Baseline (1 mg/kg oral table, 0 h (baseline)): 100%
- Mean brain MAO-A activity (1 mg/kg oral table, 0 h (pooled baseline, N=12)): 4002.0 DPM
- mean brain MAO-A activity (Avg.) (1 mg/kg oral, 0 h): 3636
- Mean brain MAO-A activity (1 mg/kg oral, 2 h): 2777.5 DPM
- brain MAO-A activity, % Baseline (1 mg/kg oral, 2 h): 69%
- mean brain MAO-A activity (Avg.) (1 mg/kg oral, 2 h): 2778
- Mean brain MAO-A activity (1 mg/kg oral, 4 h): 3023.3 DPM
- brain MAO-A activity, % Baseline (1 mg/kg oral, 4 h): 76%
- mean brain MAO-A activity (Avg.) (1 mg/kg oral, 4 h): 3023
- Mean brain MAO-A activity (1 mg/kg oral, 8 h): 5120.8 DPM
- brain MAO-A activity, % Baseline (1 mg/kg oral, 8 h): 128%
- mean brain MAO-A activity (Avg.) (1 mg/kg oral, 8 h): 5121
- Mean brain MAO-A activity (1 mg/kg oral, 18 h): 3993.0 DPM
- brain MAO-A activity, % Baseline (1 mg/kg oral, 18 h): 100%
- brain MAO-A activity, single experimental day (1 mg/kg oral, 18 h, Day #1-#4, 1 mg/kg): 5071 and 5019 and 3071 and 2811
- mean brain MAO-A activity (Avg.) (1 mg/kg oral, 18 h): 3993
- Mean brain MAO-A activity (1 mg/kg oral, 24 h): 4883.0 DPM
- brain MAO-A activity, % Baseline (1 mg/kg oral, 24 h): 122%
- mean brain MAO-A activity (Avg.) (1 mg/kg oral, 24 h): 4883
- brain MAO-A activity, % Baseline (5 mg/kg oral table, 0 h (baseline)): 100%
- Mean brain MAO-A activity (5 mg/kg oral table, 0 h (pooled baseline, N=12)): 4002.0 DPM
- brain MAO-A activity, single experimental day (5 mg/kg oral, 0 h, Day #1-#4, 5 mg/kg): 5661 and 5499 and 3070 and 3687
- mean brain MAO-A activity (Avg.) (5 mg/kg oral, 0 h): 4479
- Mean brain MAO-A activity (5 mg/kg oral, 2 h): 1495.5 DPM
- brain MAO-A activity, % Baseline (5 mg/kg oral, 2 h): 37%
- mean brain MAO-A activity (Avg.) (5 mg/kg oral, 2 h): 1496
- Mean brain MAO-A activity (5 mg/kg oral, 4 h): 2298.0 DPM
- brain MAO-A activity, % Baseline (5 mg/kg oral, 4 h): 57%
- mean brain MAO-A activity (Avg.) (5 mg/kg oral, 4 h): 2298
- Mean brain MAO-A activity (5 mg/kg oral, 8 h): 1365.5 DPM
- brain MAO-A activity, % Baseline (5 mg/kg oral, 8 h): 34%
- mean brain MAO-A activity (Avg.) (5 mg/kg oral, 8 h): 1366
- Mean brain MAO-A activity (5 mg/kg oral, 18 h): 2818.5 DPM
- brain MAO-A activity, % Baseline (5 mg/kg oral, 18 h): 70%
- mean brain MAO-A activity (Avg.) (5 mg/kg oral, 18 h): 2818
- Mean brain MAO-A activity (5 mg/kg oral, 24 h): 3442.5 DPM
- brain MAO-A activity, % Baseline (5 mg/kg oral, 24 h): 86%
- mean brain MAO-A activity (Avg.) (5 mg/kg oral, 24 h): 3443
- brain MAO-A activity, % Baseline (10 mg/kg oral table, 0 h (baseline)): 100%
- Mean brain MAO-A activity (10 mg/kg oral table, 0 h (pooled baseline, N=12)): 4002.0 DPM
- mean brain MAO-A activity (Avg.) (10 mg/kg oral, 0 h): 3889
- Mean brain MAO-A activity (10 mg/kg oral, 2 h): 3805.8 DPM
- brain MAO-A activity, % Baseline (10 mg/kg oral, 2 h): 95%
- mean brain MAO-A activity (Avg.) (10 mg/kg oral, 2 h): 3806
- Mean brain MAO-A activity (10 mg/kg oral, 4 h): 1893.5 DPM
- brain MAO-A activity, % Baseline (10 mg/kg oral, 4 h): 47%
- mean brain MAO-A activity (Avg.) (10 mg/kg oral, 4 h): 1894
- Mean brain MAO-A activity (10 mg/kg oral, 8 h): 1034.5 DPM
- brain MAO-A activity, % Baseline (10 mg/kg oral, 8 h): 26%
- mean brain MAO-A activity (Avg.) (10 mg/kg oral, 8 h): 1035
- Mean brain MAO-A activity (10 mg/kg oral, 18 h): 2149.8 DPM
- brain MAO-A activity, % Baseline (10 mg/kg oral, 18 h): 54%
- mean brain MAO-A activity (Avg.) (10 mg/kg oral, 18 h): 2150
- Mean brain MAO-A activity (10 mg/kg oral, 24 h): 1711.8 DPM
- brain MAO-A activity, % Baseline (10 mg/kg oral, 24 h): 43%
- mean brain MAO-A activity (Avg.) (10 mg/kg oral, 24 h): 1712
- inhibition of brain MAO-A enzyme activity after oral administration (oral 1, 5, 10 mg/kg): dose and time dependent manner; also recorded: dose-dependent and reversible fashion
